Consider 21 molecules from patent US20240150356A1, “Pyrimidine amide compounds and use thereof” (ALPHALA CO., LTD., priority 2019, published 2024).

Molecules are shown by their SMILES. Like-named read-outs stand apart in the source and are kept apart here.

Assay type in all cases: cell-based
Experiment [1] concerns Hep3B cells (hepatocellular carcinoma cell line). The experiment in a line: In vitro MTS cell viability assay (NCI-60 methodology), Hep3B. The following applies: Homo sapiens, 48 h, 2 days drug incubation, 50% reduction vs time zero, read-out: Hep3B LC50. The procedure, abridged: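 Hep3B cells given five 2-fold dilutions of compound for 2 days, with viability by MTS measured at time zero and at end. LC50 is the concentration giving a 50% fall in viable cells relative to the start of treatment, per NCI-60 formula.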

In experiment [2] the test system is SW480 (colon adenocarcinoma cell line). As to the kind of experiment: In vitro MTS cell viability assay (NCI-60 methodology), SW480. The following applies: Homo sapiens, SW480 cells, read-out: SW480 LC50. Here is the method:
(§1) The cell viability measurement is based on the NCI-60 screening methodology (Nat. Rev. Cancer 6, 813-823, 2006). Briefly, cells are inoculated into 96-well plates at the optimal plating density. After 24 h, one of the two plates for Hep3B cell line is processed to determine a time zero cell viability (Tz) by MTS assay (Promega). Compounds are added over a 2-fold serial dilution to provide a total five drug concentrations plus DMSO control. Plates are incubated for a further 2 days, then measured cell viability by MTS assay [control growth (C) and test growth in the presence of drug at the five concentration levels (Ti)]. The LC50 is calculated from [(Ti−Tz)/Tz]×100=−50, which is the drug concentration resulting in a 50% reduction at the end of the drug treatment as compared to that at the beginning.
(§2) The compounds prepared in Tables 1-10 were tested in three in vitro assays, and the results are shown in Tables 1-10 for Hep3B and Table 11 for SW480 and NCI-H460 shown below. Herein, Hep3B refers to hepatocellular carcinoma cell line, SW480 refers to colon adenocarcinoma cell line, and NCI-H460 refers to human lung cancer cell line.
(§3) Shown in Tables 11 are in vitro activities of exemplary compounds of formula (I).
A general note: Tetrazolium dyes change colour on reduction, which living cells bring about.

Experiment [3] deals with NCI-H460 (human lung cancer cell line). The experiment in a line: In vitro MTS cell viability assay (NCI-60 methodology), NCI-H460. The following applies: NCI-H460 cells, read-out: NCI-H460 LC50. The procedure: as §1, §2, §3

One may read the LC50 as the concentration that kills 50% of the test population. Take `Cc1csc2c(NC(=O)c3ccc([N+](=O)[O-])s3)nc(-c3ccc(C(F)(F)F)cc3)nc12` [Compound 4-2, N-(7-methyl-2-(4-(trifluoromethyl)phenyl)thieno[3,2-d]pyrimidin-4-yl)-5-nitrothiophene-2-carboxamide]: the LC50 in experiment [1] (Table 4, MTS) is 970 nM. In addition, the values for the CC50 in experiment [2] and in experiment [3] were 10100 nM and 1650 nM, respectively.

For the molecule `O=C(Nc1nc(-c2ccc(Cl)nc2)nc2c1cnn2-c1ccccc1)c1ccc([N+](=O)[O-])s1` [Compound 5-31, N-(6-(6-chloropyridin-3-yl)-1-phenyl-1H-pyrazolo[3,4-d]pyrimidin-4-yl)-5-nitrothiophene-2-carboxamide], the LC50 in experiment [1] (Table 5, MTS) was 100 nM. For the same molecule, the CC50 in experiment [2] worked out at 860 nM; in experiment [3] it was 410 nM.

Consider `O=C(Nc1nc(-c2ccc(Cl)cc2F)nc2c1cnn2-c1ccccc1)c1ccc([N+](=O)[O-])s1` [Compound 5-47, N-(6-(4-chloro-2-fluorophenyl)-1-phenyl-1H-pyrazolo[3,4-d]pyrimidin-4-yl)-5-nitrothiophene-2-carboxamide], for which the LC50 in experiment [1] (Table 5, MTS) was 130 nM. The CC50 in experiment [2] worked out at 610 nM; in experiment [3], 290 nM.

As to `O=C(Nc1nc(-c2ccc(F)nc2)nc2c1cnn2C1CCC(F)(F)CC1)c1ccc([N+](=O)[O-])s1` [Compound 10-55, N-(1-(4,4-difluorocyclohexyl)-6-(6-fluoropyridin-3-yl)-1H-pyrazolo[3,4-d]pyrimidin-4-yl)-5-nitrothiophene-2-carboxamide], the LC50 in experiment [1] (Table 10, MTS) was determined as 710 nM. Besides, the CC50 in experiment [2] amounted to 1060 nM; in experiment [3] it was 940 nM.

Take `O=C(Nc1nc(-c2ccc(F)cc2)nc2c1cnn2-c1cccc(F)c1)c1ccc([N+](=O)[O-])s1` [Compound 6-89, N-(1-(3-fluorophenyl)-6-(4-fluorophenyl)-1H-pyrazolo[3,4-d]pyrimidin-4-yl)-5-nitrothiophene-2-carboxamide]: the LC50 in experiment [1] (Table 6, MTS) stood at 120 nM. Further, the CC50 stood at 810 nM in experiment [2] and 710 nM in experiment [3].

With `O=C(Nc1nc(-c2ccc(F)cc2)nc2c1cnn2-c1ccc(F)cc1)c1ccc([N+](=O)[O-])s1` [Compound 6-115, N-(1,6-bis(4-fluorophenyl)-1H-pyrazolo[3,4-d]pyrimidin-4-yl)-5-nitrothiophene-2-carboxamide], the LC50 in experiment [1] (Table 6, MTS) was found to be 220 nM. Also, the CC50 was found to be 1910 nM in experiment [2] and 1130 nM in experiment [3].

Regarding `O=C(Nc1nc(-c2ccc(Cl)nc2)nc2c1cnn2-c1ccc(F)cc1)c1ccc([N+](=O)[O-])s1` [Compound 6-119, N-(6-(6-chloropyridin-3-yl)-1-(4-fluorophenyl)-1H-pyrazolo[3,4-d]pyrimidin-4-yl)-5-nitrothiophene-2-carboxamide], in experiment [1] (Table 6, MTS), the LC50 is 80 nM. Besides, the figures for the CC50 in experiment [2] and in experiment [3] were 690 nM and 530 nM, respectively.

As for `O=C(Nc1nc(-c2ccc(F)cc2)nc2c1cnn2-c1cccc(Cl)c1)c1ccc([N+](=O)[O-])s1` [Compound 6-35, N-(1-(3-chlorophenyl)-6-(4-fluorophenyl)-1H-pyrazolo[3,4-d]pyrimidin-4-yl)-5-nitrothiophene-2-carboxamide], in experiment [1] (Table 6, MTS), the LC50 came to 110 nM. Moreover, the CC50 worked out at 520 nM in experiment [2] and 500 nM in experiment [3].

As to `COc1nc(NC(=O)c2ccc([N+](=O)[O-])s2)c2cnn(-c3ccc(C(C)(C)C)cc3)c2n1` [Compound 6-57, N-(1-(4-(tert-butyl)phenyl)-6-methoxy-1H-pyrazolo[3,4-d]pyrimidin-4-yl)-5-nitrothiophene-2-carboxamide], the LC50 in experiment [1] (Table 6, MTS) turned out to be 700 nM. The CC50 in experiment [2] stood at 1240 nM; in experiment [3] it was 2750 nM.

Take `O=C(Nc1nc(-c2ccc(Cl)nc2)nc2c1cnn2C1CCC(F)(F)CC1)c1ccc([N+](=O)[O-])s1` [Compound 10-57, N-(6-(6-chloropyridin-3-yl)-1-(4,4-difluorocyclohexyl)-TH-pyrazolo[3,4-d]pyrimidin-4-yl)-5-nitrothiophene-2-carboxamide]: the LC50 in experiment [1] (Table 10, MTS) worked out at 570 nM. Moreover, the CC50 in experiment [2] was found to be 1340 nM; in experiment [3], 1300 nM.

Consider `CC(C)(C)OC(=O)N1CCC(n2ncc3c(NC(=O)c4ccc([N+](=O)[O-])s4)nc(-c4ccc(Cl)cc4)nc32)CC1` [Compound 9-5, tert-butyl 4-(6-(4-chlorophenyl)-4-(5-nitrothiophene-2-carboxamido)-1H-pyrazolo [3,4-d]pyrimidin-1-yl)piperidine-1-carboxylate], for which the LC50 in experiment [1] (Table 9, MTS) is 450 nM. The CC50 in experiment [2] amounted to 2780 nM; in experiment [3] it was 1300 nM.

In the case of `O=C(Nc1nc(-c2cccs2)nc2c1cnn2-c1ccccc1)c1ccc([N+](=O)[O-])s1` [Compound 5-18, 5-nitro-N-(1-phenyl-6-(thiophen-2-yl)-1H-pyrazolo[3,4-d]pyrimidin-4-yl)thiophene-2-carboxamide], in experiment [1] (Table 5, MTS), the LC50 worked out at 580 nM. The values for the CC50 in experiment [2] and in experiment [3] were 2430 nM and 460 nM, respectively.

`COc1ccc(-c2nc(NC(=O)c3ccc([N+](=O)[O-])s3)c3cnn(-c4ccccc4)c3n2)cn1` [Compound 5-35, N-(6-(6-methoxypyridin-3-yl)-1-phenyl-1H-pyrazolo[3,4-d]pyrimidin-4-yl)-5-nitrothiophene-2-carboxamide]: the LC50 in experiment [1] (Table 5, MTS) is 180 nM. Further, the CC50 in experiment [2] was 1110 nM; in experiment [3], 650 nM.

Take `CCOCCOCCOc1ccc(-c2nc(NC(=O)c3ccc([N+](=O)[O-])s3)c3cnn(-c4cccc(Cl)c4)c3n2)cn1` [Compound 6-45, N-(1-(3-chlorophenyl)-6-(6-(2-(2-ethoxyethoxy)ethoxy)pyridin-3-yl)-1H-pyrazolo[3,4-d]pyrimidin-4-yl)-5-nitrothiophene-2-carboxamide]: the LC50 in experiment [1] (Table 6, MTS) is 220 nM. Further, the CC50 came to 580 nM in experiment [2] and 570 nM in experiment [3].

`O=C(Nc1nc(-c2ccc(F)nc2)nc2c1cnn2-c1ccc(C(F)(F)F)cc1)c1ccc([N+](=O)[O-])s1` [Compound 6-54, N-(6-(6-fluoropyridin-3-yl)-1-(4-(trifluoromethyl)phenyl)-1H-pyrazolo[3,4-d]pyrimidin-4-yl)-5-nitrothiophene-2-carboxamide]: the LC50 in experiment [1] (Table 6, MTS) stood at 130 nM. In addition, the CC50 turned out to be 340 nM in experiment [2] and 330 nM in experiment [3].

Regarding `O=C(Nc1nc(-c2ccc(F)cc2)nc2c1cnn2C1CCCCC1)c1ccc([N+](=O)[O-])s1` [Compound 10-13, N-(1-cyclohexyl-6-(4-fluorophenyl)-1H-pyrazolo[3,4-d]pyrimidin-4-yl)-5-nitrothiophene-2-carboxamide], in experiment [1] (Table 10, MTS), the median lethal concentration (LC50) was found to be 700 nM. Moreover, the figures for the CC50 in experiment [2] and in experiment [3] were 1730 nM and 2620 nM, respectively.

Consider `O=C(Nc1nc(-c2ccc(Cl)nc2)nc2c1cnn2C1CCCCC1)c1ccc([N+](=O)[O-])s1` [Compound 10-18, N-(6-(6-chloropyridin-3-yl)-1-cyclohexyl-1H-pyrazolo[3,4-d]pyrimidin-4-yl)-5-nitrothiophene-2-carboxamide], for which the LC50 in experiment [1] (Table 10, MTS) is 680 nM. Besides, the values for the CC50 in experiment [2] and in experiment [3] were 950 nM and 850 nM, respectively.

For `N#Cc1ccc(-c2nc(NC(=O)c3ccc([N+](=O)[O-])s3)c3cnn(-c4ccccc4)c3n2)cc1` [Compound 5-32, N-(6-(4-cyanophenyl)-1-phenyl-1H-pyrazolo[3,4-d]pyrimidin-4-yl)-5-nitrothiophene-2-carboxamide], the LC50 in experiment [1] (Table 5, MTS) worked out at 110 nM. Also, the values for the CC50 in experiment [2] and in experiment [3] were 2770 nM and 1160 nM, respectively.

Take `O=C(Nc1nc(-c2ccc(Cl)cc2Cl)nc2c1cnn2-c1ccccc1)c1ccc([N+](=O)[O-])s1` [Compound 5-49]: in experiment [1] (Table 5, MTS), the LC50 was 270 nM. In addition, the CC50 in experiment [2] is 3750 nM; in experiment [3] it was 1220 nM.

Regarding `CCOCCOCCOc1ccc(-c2nc(NC(=O)c3ccc([N+](=O)[O-])s3)c3cnn(-c4ccc(OC)cc4)c3n2)cn1` [Compound 6-28, N-(6-(6-(2-(2-ethoxyethoxy)ethoxy)pyridin-3-yl)-1-(4-methoxyphenyl)-1H-pyrazolo[3,4-d]pyrimidin-4-yl)-5-nitrothiophene-2-carboxamide], in experiment [1] (Table 6, MTS), the LC50 worked out at 190 nM. Also, the CC50 came out at 3440 nM in experiment [2] and 680 nM in experiment [3].

As for `CN(C)CCOc1ccc(-c2nc(NC(=O)c3ccc([N+](=O)[O-])s3)c3cnn(-c4ccc(F)cc4)c3n2)cn1` [Compound 6-130, N-(6-(6-(2-(dimethylamino)ethoxy)pyridin-3-yl)-1-(4-fluorophenyl)-1H-pyrazolo[3,4-d]pyrimidin-4-yl)-5-nitrothiophene-2-carboxamide], the LC50 in experiment [1] (Table 6, MTS) worked out at 260 nM. Besides, the CC50 worked out at 2900 nM in experiment [2] and 3810 nM in experiment [3].
